According to patent US20250295119A1, “SPHERICAL NAN[…] FROM TMGMV IMPROVE SOIL TRANSPORT OF SMALL, HYDROPHOBIC AGROCHEMICALS” (THE REGENTS OF THE UNIVERSITY OF CALIFORNIA, priority 2022, published 2025):

Assays:
C. elegans [1] = assay: Pluronic F127 gel burrowing assay after treatment of C. elegans in solution; assay type: in vivo, Caenorhabditis elegans; conditions: 10 μM ivermectin (normalized), 90 minutes incubation in solution, no soil passage
Experimental: (§1) As a final test, Applicant delivered IVN-SNPs against C. elegans (FIG. 4). Nematodes were incubated with SNPs, IVN-SNPs, and free IVN for 90 minutes in solution. In parallel, the same (IVN-)SNPs were passed through a soil column and collected before treating the C. elegans in solution. For all samples, Applicant performed a modified gel burrowing assay (FIG. 4A) by transferring the nematodes and casting them in Pluronic F127 in a well-plate^23. The surface was coated with E. coli OP-50 lysate to attract the nematodes, and the number of C. elegans which penetrated to the surface were counted. Nematode mobility was quantified based on their total track coverage using edge detection (FIGS. 4B-4D, FIG. 13, FIG. 14). The mobility was then estimated using the following equation: […]
Using the optimized Pluronic concentration of 26% w/w previously reported, Pluronic F127 solutions were stored at 4° C. to dissolve and stay soluble (Lesanpezeshki, L. et al., Scientific Reports 2019). […] After 2 hours, an 11×11 area scan at 4× magnification (Keyence BZ-X800 Fluorescence Microscope) was taken for each well. The number of nematodes on the surface were counted manually and the area fraction of their tracks was determined by edge detection and binary image transformation in ImageJ.

C. elegans [2] = assay: Pluronic F127 gel burrowing assay with samples first passed through a 10 cm soil column; assay type: in vivo, Caenorhabditis elegans; conditions: 10 μM ivermectin, collected fractions
Experimental: as §1
Magic Topsoil (Michigan Peat) was weighed and packed into a cylindrical column fitted with miracloth at the bottom. […] The band intensity of the fractions on SDS PAGE was determined using ImageJ. […]
Using the optimized Pluronic concentration of 26% w/w previously reported, Pluronic F127 solutions were stored at 4° C. to dissolve and stay soluble (Lesanpezeshki, L. et al., Scientific Reports 2019). […] After 2 hours, an 11×11 area scan at 4× magnification (Keyence BZ-X800 Fluorescence Microscope) was taken for each well. […]

ivermectin
reduction in surface velocity (C. elegans [1]): 4.5 fold | reduction in the number of nematodes on the surface (C. elegans [1]): 6 fold | reduction in surface velocity after passing through a soil column (C. elegans [2]): no reduction | reduction in the number of nematodes after passing through a soil column (C. elegans [2]): no reduction
